In PubChem BioAssay (NCI):
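These data come from cells grown in 96-well plates and exposed to compound for 48 hours at five concentrations. The concentration for 50% growth inhibition is given as GI50. TGI: concentration producing complete growth inhibition.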

How the values were obtained:
Experiment in all cases: NCI anticancer screen, dose series, 48 h
SF-268 CNS = tested on: SF-268 CNS
CAKI-1 renal = tested on: CAKI-1 renal
SNB-19 CNS = tested on: SNB-19 CNS
SK-MEL-2 melanoma = tested on: SK-MEL-2 melanoma
LOX IMVI melanoma = tested on: LOX IMVI melanoma
CCRF-CEM leukemia = tested on: CCRF-CEM leukemia
HCT-116 colon = tested on: HCT-116 colon
T-47D breast = tested on: T-47D breast
HS 578T breast = tested on: HS 578T breast
IGROV1 ovarian = tested on: IGROV1 ovarian
RPMI-8226 leukemia = tested on: RPMI-8226 leukemia
HOP-92 NSCLC = tested on: HOP-92 NSCLC
K-562 leukemia = tested on: K-562 leukemia
NCI-H226 lung = tested on: NCI-H226 lung
PC-3 prostate = tested on: PC-3 prostate
BT-549 breast = tested on: BT-549 breast
MOLT-4 leukemia = tested on: MOLT-4 leukemia
SK-MEL-5 melanoma = tested on: SK-MEL-5 melanoma
NCI/ADR-RES ovarian = tested on: NCI/ADR-RES ovarian
U251 CNS = tested on: U251 CNS
UO-31 renal = tested on: UO-31 renal
MCF7 breast = tested on: MCF7 breast
UACC-257 melanoma = tested on: UACC-257 melanoma
SK-OV-3 ovarian = tested on: SK-OV-3 ovarian
SF-539 CNS = tested on: SF-539 CNS
M14 melanoma = tested on: M14 melanoma
OVCAR-4 ovarian = tested on: OVCAR-4 ovarian
DU-145 prostate = tested on: DU-145 prostate
RXF 393 renal = tested on: RXF 393 renal
SW-620 colon = tested on: SW-620 colon
EKVX NSCLC = tested on: EKVX NSCLC
MDA-MB-231 breast = tested on: MDA-MB-231 breast
OVCAR-3 ovarian = tested on: OVCAR-3 ovarian
NCI-H522 lung = tested on: NCI-H522 lung
SR leukemia = tested on: SR leukemia
HCC-2998 colon = tested on: HCC-2998 colon
NCI-H23 lung = tested on: NCI-H23 lung
ACHN renal = tested on: ACHN renal
HOP-62 NSCLC = tested on: HOP-62 NSCLC
A549 NSCLC = tested on: A549 NSCLC
NCI-H460 lung = tested on: NCI-H460 lung
SK-MEL-28 melanoma = tested on: SK-MEL-28 melanoma
OVCAR-8 ovarian = tested on: OVCAR-8 ovarian
COLO 205 colon = tested on: COLO 205 colon
HCT-15 colon = tested on: HCT-15 colon
KM12 colon = tested on: KM12 colon
786-0 renal = tested on: 786-0 renal
SNB-75 CNS = tested on: SNB-75 CNS
SN12C renal = tested on: SN12C renal
A498 renal = tested on: A498 renal
MDA-MB-435 = tested on: MDA-MB-435
OVCAR-5 ovarian = tested on: OVCAR-5 ovarian
UACC-62 melanoma = tested on: UACC-62 melanoma
SF-295 CNS = tested on: SF-295 CNS
TK-10 renal = tested on: TK-10 renal
HT29 colon = tested on: HT29 colon

SMILES: CCOC(=O)c1sc(=S)c2c(C(=O)OCC)c(C(=O)OCC)sc2c1C(=O)OCC
- GI50 (SF-268 CNS): 16.4 µM
- TGI (SF-268 CNS): 33.9 µM
- GI50 (CAKI-1 renal): 26.5 µM
- TGI (CAKI-1 renal): 93.9 µM
- GI50 (SNB-19 CNS): 32.2 µM
- TGI (SNB-19 CNS): > 100 µM
- GI50 (SK-MEL-2 melanoma): 21.2 µM
- TGI (SK-MEL-2 melanoma): 44.7 µM
- GI50 (LOX IMVI melanoma): 14.1 µM
- TGI (LOX IMVI melanoma): 27.9 µM
- GI50 (CCRF-CEM leukemia): 19.1 µM
- TGI (CCRF-CEM leukemia): 61.7 µM
- GI50 (HCT-116 colon): 18 µM
- TGI (HCT-116 colon): 40 µM
- GI50 (T-47D breast): 23.7 µM
- TGI (T-47D breast): 95.5 µM
- GI50 (HS 578T breast): 17.7 µM
- TGI (HS 578T breast): 47.3 µM
- GI50 (IGROV1 ovarian): 13.4 µM
- TGI (IGROV1 ovarian): 29.8 µM
- GI50 (RPMI-8226 leukemia): 7.88 µM
- TGI (RPMI-8226 leukemia): 28 µM
- GI50 (HOP-92 NSCLC): 10.3 µM
- TGI (HOP-92 NSCLC): 23 µM
- GI50 (K-562 leukemia): 10.6 µM
- TGI (K-562 leukemia): 25.1 µM
- GI50 (NCI-H226 lung): 10.9 µM
- TGI (NCI-H226 lung): 26.7 µM
- GI50 (PC-3 prostate): 8.17 µM
- TGI (PC-3 prostate): 21.2 µM
- GI50 (BT-549 breast): 21.5 µM
- TGI (BT-549 breast): 45.4 µM
- GI50 (MOLT-4 leukemia): 15.9 µM
- TGI (MOLT-4 leukemia): 42.3 µM
- GI50 (SK-MEL-5 melanoma): 16.4 µM
- TGI (SK-MEL-5 melanoma): 32.9 µM
- GI50 (NCI/ADR-RES ovarian): 17.3 µM
- TGI (NCI/ADR-RES ovarian): 35.9 µM
- GI50 (U251 CNS): 12.7 µM
- TGI (U251 CNS): 26.5 µM
- GI50 (UO-31 renal): 15.1 µM
- TGI (UO-31 renal): 30.9 µM
- GI50 (MCF7 breast): 15.2 µM
- TGI (MCF7 breast): 29.9 µM
- GI50 (UACC-257 melanoma): 15.1 µM
- TGI (UACC-257 melanoma): 39 µM
- GI50 (SK-OV-3 ovarian): 43.3 µM
- TGI (SK-OV-3 ovarian): > 100 µM
- GI50 (SF-539 CNS): 18.9 µM
- TGI (SF-539 CNS): 36.1 µM
- GI50 (M14 melanoma): 16.8 µM
- TGI (M14 melanoma): 32.6 µM
- GI50 (OVCAR-4 ovarian): 20.7 µM
- TGI (OVCAR-4 ovarian): 56.9 µM
- GI50 (DU-145 prostate): 17.4 µM
- TGI (DU-145 prostate): 39 µM
- GI50 (RXF 393 renal): 13 µM
- TGI (RXF 393 renal): 39.4 µM
- GI50 (SW-620 colon): 23.7 µM
- TGI (SW-620 colon): 56.4 µM
- GI50 (EKVX NSCLC): 21.5 µM
- TGI (EKVX NSCLC): 43.4 µM
- GI50 (MDA-MB-231 breast): 14.6 µM
- TGI (MDA-MB-231 breast): 32.7 µM
- GI50 (OVCAR-3 ovarian): 16 µM
- TGI (OVCAR-3 ovarian): 68 µM
- GI50 (NCI-H522 lung): 10.6 µM
- TGI (NCI-H522 lung): 26.4 µM
- GI50 (SR leukemia): 15 µM
- TGI (SR leukemia): 35.4 µM
- GI50 (HCC-2998 colon): 13.1 µM
- TGI (HCC-2998 colon): 28.7 µM
- GI50 (NCI-H23 lung): 17.4 µM
- TGI (NCI-H23 lung): 35.5 µM
- GI50 (ACHN renal): 16.6 µM
- TGI (ACHN renal): 39.4 µM
- GI50 (HOP-62 NSCLC): 17.6 µM
- TGI (HOP-62 NSCLC): 33.4 µM
- GI50 (A549 NSCLC): 16.4 µM
- TGI (A549 NSCLC): 42.8 µM
- GI50 (NCI-H460 lung): 21.4 µM
- TGI (NCI-H460 lung): 51.2 µM
- GI50 (SK-MEL-28 melanoma): 21.3 µM
- TGI (SK-MEL-28 melanoma): 54.7 µM
- GI50 (OVCAR-8 ovarian): 17.8 µM
- TGI (OVCAR-8 ovarian): 40 µM
- GI50 (COLO 205 colon): 27.6 µM
- TGI (COLO 205 colon): > 100 µM
- GI50 (HCT-15 colon): 14.4 µM
- TGI (HCT-15 colon): 28.5 µM
- GI50 (KM12 colon): 18.4 µM
- TGI (KM12 colon): 44.5 µM
- GI50 (786-0 renal): 20.4 µM
- TGI (786-0 renal): 44.5 µM
- GI50 (SNB-75 CNS): 40.3 µM
- TGI (SNB-75 CNS): > 100 µM
- GI50 (SN12C renal): 11.2 µM
- TGI (SN12C renal): 26.7 µM
- GI50 (A498 renal): 18.2 µM
- TGI (A498 renal): 33.9 µM
- GI50 (MDA-MB-435): 27.4 µM
- TGI (MDA-MB-435): 67.2 µM
- GI50 (OVCAR-5 ovarian): 17.6 µM
- TGI (OVCAR-5 ovarian): 35.7 µM
- GI50 (UACC-62 melanoma): 12.1 µM
- TGI (UACC-62 melanoma): 26.9 µM
- GI50 (SF-295 CNS): 31.4 µM
- TGI (SF-295 CNS): 94.8 µM
- GI50 (TK-10 renal): 5.85 µM
- TGI (TK-10 renal): 39.4 µM
- GI50 (HT29 colon): 28 µM
- TGI (HT29 colon): > 100 µM
